Reference: US20090298811A1, “BENZIMIDAZOLONE DERIVATIVES” (Pfizer Inc, priority 2006, published 2009)

Assays:
human CB1 receptor [1] = molecular target: T1, human CB1 receptor (Homo sapiens, UniProt P21554); assay: Human CB1 receptor binding, [3H] CP-55,940 displacement on HEK cell membranes; set-up: expressed in transfected cells; membranes; details: [3H] CP-55,940 500 pM
Protocol: The Human CB1 receptor binding affinity and other biological activities of the compounds of this invention are determined by the following procedures.
Membrane preparation: Human Embryonic Kidney (HEK) Cells expressing the human CB1 receptor under transcriptional regulation of a tetracycline inducible promoter were grown in Dulbecco's Modified Essential Medium with sodium pyruvate (Invitrogen, Carlsbad, Calif.) containing 10% tetracycline free fetal bovine serum (Clonetech, Mountain View, Calif.) 100 μg/ml hygromycin (Calbiochem, San Diego, Calif.), 5 μg/ml blasticidin (Invitrogen). CB1 receptor expression was induced by addition of 1 μg/ml doxycycline (Calbiochem) and incubation for an additional 24 hours. Cells were released from flasks using Cell Dissociation Buffer (Invitrogen). Cells were pelleted by centrifugation at 500×G for 5 minutes. Membranes were prepared by resuspending cells in ice cold TEE Buffer (25 mM Tris pH 7.4, 5 mM EDTA, 5 mM EGTA, Complete Protease Inhibitor (Roche, Basel, Switzerland)). Cells were lysed with 12 strokes of a dounce homogenizer. Unlysed cells were pelleted by centrifugation at 500×G for 5 minutes. Membranes were pelleted by centrifugation at 25,000×G for 30 minutes. Membranes were resuspended in TEE, dounced 12 strokes, and pelleted a second time at 25,000×G for 30 minutes. Membrane pellet was resuspended in 50 mM Tris pH 7.4, 100 mM NaCl, 3 mM MgCl2, 0.2 mM EGTA, Complete Protease Inhibitor (Roche). Protein concentration was determined using the Micro-BCA Protein Assay Kit (Pierce, Rockford, Ill.) using BSA as a standard. Membranes were quick frozen and stored at −80 degrees Celsius until use. Binding experiments: 50 μl of test compound was incubated with 50 μl, of [^3H] CP-55,940 (Perkin Elmer, Boston, Mass.) (final concentration 500 pM) and 150 μl of membrane homogenate (1 μg/well) in polypropylene 96-well plates (Corning, Acton, Mass.). Final reaction conditions were 50 mM Tris pH 7.4, 100 mM NaCl, 3 mM MgCl2, 0.2 mM EGTA, 0.04% BSA. Nonspecific binding was determined by incubation with 50 μM WIN-55,212-2 (Tocris, Ellisville, Mo.). After incubation at room temperature for 60 minutes reactions were harvested by vacuum filtration through Unifilter GF/B-96 filters (Perkin Elmer) that had been presoaked in assay buffer containing 0.5% BSA (Sigma, St. Louis, Mo.) using a FilterMate Plate Harvester (Perkin Elmer). Filters were rinsed 4 times with 50 mM Tris pH 7.4, 0.025% Tween20 and dried at 50 degrees Celsius for at least 30 minutes. 40 μl of Microscint-20 (Perkin Elmer) was added per well, and plates were counted using a Top-Count Microplate Scintillation Counter (Perkin Elmer). Binding data were analyzed and EC50 and Ki values calculated using Graph Pad Prism 4.0 Software.

human CB1 receptor [2] = molecular target: T1, human CB1 receptor; assay: GTPγS binding on membranes of CHO cells expressing the human CB1 receptor; type: biochemical; set-up: expressed in transfected cells; host or cells: CHO cells (G418 selection); membranes; details: CHO cell membranes, [35S] GTPγS
Protocol: Membrane preparation: CHO cells expressing the human CB1 receptor were grown to 80% confluence in Ham's F-12 Nutrient Medium (Invitrogen) containing 10% fetal bovine serum (Invitrogen), 1% pen/strep (Invitrogen), 1% Nonessential amino acids (Invitrogen) and 500 μg/ml G418 (Invitrogen). Cells were released from flasks using Cell Dissociation Buffer (Invitrogen). Cells were pelleted by centrifugation at 500×G for 5 minutes. Membranes were prepared by resuspending cells in ice cold Assay Buffer (25 mM Tris pH 7.4, 5 mM EDTA, 5 mM EGTA, Complete Protease Inhibitor (Roche)). Cells were lysed with 12 strokes of a dounce homogenizer. Unlysed cells were pelleted by centrifugation at 500×G for 5 minutes. Membranes were pelleted by centrifugation at 25,000×G for 30 minutes. Membranes were resuspended in TEE, dounced 12 strokes, and pelleted a second time at 25,000×G for 30 minutes. Membrane pellet was resuspended in 50 mM Tris pH 7.4, 100 mM NaCl, 3 mM MgCl2, 0.2 mM EGTA, Complete Protease Inhibitor (Roche). Protein concentration was determined using the Micro-BCA Protein Assay Kit (Pierce) using BSA as a standard. Membranes were frozen and stored at −80 degrees Celsius until use. GTPγS Binding: 40 μl of test compound was incubated with 20 μl of [^35S] GTPγS (Perkin Elmer) (1250 Ci/millimole) and 140 μl of membrane homogenate (5 ug/well) in polypropylene 96-well plates (Corning). Final reaction conditions were 50 mM Tris pH 7.4, 100 mM NaCl, 3 mM […], 0.2 mM EGTA, 0.04% BSA. After incubation at 37 degrees Celsius for 45 minutes reactions were harvested by vacuum filtration through Unifilter GF/B-96 filters (Perkin Elmer) using a FilterMate Plate Harvester (Perkin Elmer). Filters were rinsed 4 times with ice cold 50 mM Tris pH 7.4, 3 mM MgCl2, 0.2 mM EGTA and dried at 50 degrees Celsius for at least 30 minutes. 40 μl of Microscint-20 (Perkin Elmer) was added per well, and plates were counted using a Top-Count Microplate Scintillation Counter (Perkin Elmer). Binding data were analyzed and EC50 values were calculated using Graph Pad Prism 4.0 Software.

T1 sequence (P21554 whole entry): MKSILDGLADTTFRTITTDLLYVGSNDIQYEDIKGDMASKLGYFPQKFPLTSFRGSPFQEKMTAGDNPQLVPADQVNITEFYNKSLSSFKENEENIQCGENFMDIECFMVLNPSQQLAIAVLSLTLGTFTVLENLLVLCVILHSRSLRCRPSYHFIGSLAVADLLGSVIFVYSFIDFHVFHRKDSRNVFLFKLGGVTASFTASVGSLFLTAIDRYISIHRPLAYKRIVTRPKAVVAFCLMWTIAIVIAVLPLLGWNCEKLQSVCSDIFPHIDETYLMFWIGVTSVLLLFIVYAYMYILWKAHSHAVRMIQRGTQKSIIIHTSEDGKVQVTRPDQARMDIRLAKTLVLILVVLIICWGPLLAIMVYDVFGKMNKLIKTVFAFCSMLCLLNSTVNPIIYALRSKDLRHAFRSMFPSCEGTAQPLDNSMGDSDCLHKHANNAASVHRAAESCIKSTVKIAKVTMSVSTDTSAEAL

SMILES	Ki (human CB1 receptor [1]) [nM]	EC50 (human CB1 receptor [2]) [nM]
CC(C)(C)[C@H](NC(=O)n1c(=O)n(CC2CC=C(F)CC2)c2ccccc21)C(N)=O (single isomer, unassigned) [Example 305]	0.18	1.74
CC(C)(C)[C@H](NC(=O)n1c(=O)n(CC2CCOCC2)c2ccccc21)C(N)=O [Example 132, N-[(1S)-1-(aminocarbonyl)-2,2-dimethylpropyl]-2-oxo-3-(tetrahydro-2H-pyran-4-ylmethyl)-2,3-dihydro-1H-benzimidazole-1-carboxamide]	3.4	12.7
CC(C)(C)[C@H](NC(=O)n1c(=O)n(CC2CCCCC2)c2ccc(F)cc21)C(N)=O [Example 165]	0.82	27.4
CC(C)(C)[C@H](NC(=O)n1c(=O)n(CC2CCCCC2)c2ccc(Cl)cc21)C(N)=O [Example 166]	2.52	31.5
Cc1ccc2c(c1)n(C(=O)N[C@H](C(N)=O)C(C)(C)C)c(=O)n2CC1CCCCC1 [Example 167]	2.66	44.9
CC(C)(C)[C@H](NC(=O)n1c(=O)n(CC2CCCCC2)c2cc(F)ccc21)C(N)=O [Example 169]	0.28	1
CC(C)(C)[C@H](NC(=O)n1c(=O)n(CC2CCCCC2)c2cc(Cl)ccc21)C(N)=O [Example 170]	0.28	1.86
CC(C)(C)[C@H](NC(=O)n1c(=O)n(CC2CCCCC2)c2c(F)cccc21)C(N)=O [Example 172]	0.77	7.8
CC(C)(C)[C@H](NC(=O)n1c(=O)n(CC2CCCCC2)c2c(Cl)cccc21)C(N)=O [Example 173]	0.34	2.5
Cc1cccc2c1n(CC1CCCCC1)c(=O)n2C(=O)N[C@H](C(N)=O)C(C)(C)C [Example 174]	0.32	8.3
CC(C)(C)[C@@H](CO)NC(=O)n1c(=O)n(CC2CCCCC2)c2ccccc21 [Example 176]	2.22	82.4
CCCCCn1c(=O)n(C(=O)N[C@H](CO)C(C)(C)C)c2ccccc21 [Example 178]	8.45	137
CN(C)CC(C)(C)CNC(=O)n1c(=O)n(CC2CCCCC2)c2ccccc21 [Example 182]	17	267
O=C(N[C@H]1c2ccccc2C[C@H]1O)n1c(=O)n(CC2CCCCC2)c2ccccc21 [Example 188]	1.9	87.7
O=C(N[C@H]1c2ccccc2C[C@H]1O)n1c(=O)n(CC2CCC2)c2ccccc21 [Example 189]	88.4	1020
CCCCCn1c(=O)n(C(=O)N[C@H]2c3ccccc3C[C@H]2O)c2ccccc21 [Example 190]	8.09	406
O=C(N[C@H]1CCCC[C@@H]1O)n1c(=O)n(CC2CCCCC2)c2ccccc21 [Example 191]	10.5	394
CCCCCn1c(=O)n(C(=O)N[C@H]2CCCC[C@@H]2O)c2ccccc21 [Example 193]	67.4	622
O=C(N[C@H]1CCCc2ccccc21)n1c(=O)n(CC2CCCCC2)c2ccccc21 [Example 197]	0.78	13.2
O=C(N[C@H]1CCCc2ccccc21)n1c(=O)n(CC2CCC2)c2ccccc21 [Example 198]	5.79	46.5
CCCCCn1c(=O)n(C(=O)N[C@H]2CCCc3ccccc32)c2ccccc21 [Example 199]	0.9	40.1

SMILES	Ki (human CB1 receptor [1]) [nM]	EC50 (human CB1 receptor [2]) [nM]
CC(C)(C)[C@H](NC(=O)n1c(=O)n(CC2CCCCC2)c2ccccc21)C(N)=O [Example 200]	0.52	96.9
CC(C)(C)[C@H](NC(=O)n1c(=O)n(CC2CCC2)c2ccccc21)C(N)=O [Example 201]	4.94	45.3
CCCCCn1c(=O)n(C(=O)N[C@H](C(N)=O)C(C)(C)C)c2ccccc21 [Example 202]	4.52	20.1
CC(C)[C@H](NC(=O)n1c(=O)n(CC2CCCCC2)c2ccccc21)C(N)=O [Example 203]	8.23	74.1
CCCCCn1c(=O)n(C(=O)N[C@H](C(N)=O)C(C)C)c2ccccc21 [Example 205]	69	422
CC(C)(C)[C@H](NC(=O)n1c(=O)n(CCC2CCC2)c2ccccc21)C(N)=O [Example 217]	1.28	3.2
CC(C)(C)[C@H](NC(=O)n1c(=O)n(CCCCC#N)c2ccccc21)C(N)=O [Example 223]	102	1860
CC(C)(C)[C@H](NC(=O)n1c(=O)n(CC2CCCCO2)c2ccccc21)C(N)=O (stereo partly drawn) [Example 224]	29.9	176
CC(C)(C)[C@H](NC(=O)n1c(=O)n(CC2CCCCC2)c2ncccc21)C(N)=O [Example 226]	5.34	62.1
CC(C)(C)[C@H](NC(=O)n1c(=O)n(CCC(F)(F)F)c2ccccc21)C(N)=O [Example 227]	10.2	245
Cc1ccc2c(c1)n(CC1CCCCC1)c(=O)n2C(=O)NC1(C(N)=O)CCCCC1 [Example 266]	109	> 2850
Cc1ccc2c(c1)n(CC1CCCCC1)c(=O)n2C(=O)N[C@H](CC(C)C)C(N)=O [Example 267]	18.4	> 10000
Cc1ccc2c(c1)n(CC1CCCCC1)c(=O)n2C(=O)N[C@@H](Cc1ccccc1)C(N)=O [Example 268]	130	2580
Cc1ccc2c(c1)n(CC1CCCCC1)c(=O)n2C(=O)N[C@H](C(N)=O)C(C)C [Example 269]	2.95	24
CC(C)(C)[C@H](NC(=O)n1c(=O)n(CC2CCCCC2)c2cccc(F)c21)C(N)=O [Example 271]	1.28	6.53
CC(C)(C)[C@H](NC(=O)n1c(=O)n(CC2CCOCC2)c2cc(C#N)ccc21)C(N)=O [Example 272]	58	45.4
Cc1ccc2c(c1)n(CC1CCCCC1)c(=O)n2C(=O)N[C@H](C(N)=O)C1CCCCC1 [Example 273]	57.5	244
O=C(N[C@H]1CCCc2ccccc21)n1c(=O)n(CC2CCOCC2)c2ccccc21 [Example 276]	0.374	5.8
O=C(N[C@H]1c2ccccc2C[C@H]1O)n1c(=O)n(CC2CCOCC2)c2ccccc21 [Example 280]	31	136
CC(C)(C)[C@H](NC(=O)n1c(=O)n(CC2CCOCC2)c2cc(F)ccc21)C(N)=O [Example 290]	19.2	25.1
CCCCn1c(=O)n(C(=O)N[C@H](C(N)=O)C(C)(C)C)c2ccccc21 [Example 292]	2.09	75.1
